{"source": "patent US8337809B2", "about": "“Charge-assembled capsules for phototherapy” (William Marsh Rice University, priority 2006, dated 2012)", "key": {"[1]": {"test_system": "fibroblasts (rat maxillary incisor pulp cells (RPC-C2A))", "assay": "Viability assessment of cells exposed to ICG-NACs (Live/Dead viability assay)", "type": "cell-based", "description": "(§1) Washed ICG-NACs (0.5 mL, ˜1×10^7 particles/mL, ˜1×10^9 ICG molecules/particles, 0.007 wt % ICG of suspension) were suspended in PBS solution and placed in the wells of a 24 well polystyrene culture dish. Control samples were a 0.007 wt % PBS solution of ICG and PBS solution. Containing 0.5 mL of aqueous suspension or solution, each well was irradiated with a continuous-wave near-infrared diode laser (Coherent FAP-System, 54 W, λ=808 nm, irradiance (Io)) 155 W/cm^2) for various time intervals. The laser beam impinged on the sample with a 6.66 mm diameter. During irradiation, the sample temperature was monitored with a K-type thermocouple (bead diameter) 0.003 in., Omega Engineering) located 1 mm outside the laser spot and recorded using LabVIEW data acquisition software (National Instruments, Austin, Tex.). For the SEM study, 5 identical batches were prepared and irradiated for various times. Each sample was then washed twice with Nanopure water and dried at room temperature for SEM imaging. Viability Assessment of Cells Exposed to ICG-NACs. […] Cell survival was quantified using the Live/Dead viability assay (Molecular Probes). Dead cells were differentiated from live cells through fluorescence microscopy, as the former emitted red fluorescence (from the ethidium homodimer-1 dye precursor) and the latter emitted green fluorescence (from the calcein acetoxymethyl ester dye precursor). […]"}, "[2]": {"details": "cited from earlier work"}, "animal subjects": {"test_system": "animal subjects", "details": "cited from earlier work"}, "[3]": {"assay": "Laser-induced photothermal experiments (808 nm NIR diode laser)", "description": "as §1"}, "[4]": {"details": "ICG concentration 0.001 mg/ml at 42° C.; cited from earlier work"}, "[5]": {"assay": "ICG leakage measurements / thermal degradation in PBS", "type": "physicochemical", "details": "37° C.", "description": "The synthesis of ICG-NACs with ICG/PAH=0.04 was scaled up by 10 times. After washing with PBS solution, the precipitate was dispersed in PBS solution (2.6 mL) and split into 0.25 mL aliquots kept under constant shaking in the dark at either 23 or 37° C. Because of the long time scale of this study and the sensitivity of ICG to degradation in water, the suspension fluid was not analyzed for released ICG. Instead, the ICG contained within the ICG-NACs was quantified by inducing the disassembly of the ICG-NACs and immediately measuring the ICG concentration. Specifically, after a given aging time, each aliquot was centrifuged for 30 min and the concentrated precipitate suspension ([…]) was combined with 2.5 mL HNO3 solution (2 wt %). The resulting clear solution was then analyzed through UV-vis spectroscopy. As control samples, fresh ICG solution in PBS was prepared with a concentration close to that of the disassembled NAC solution (˜0.04 mg/mL) and incubated at 23 and 37° C. The samples were kept in the dark during aging.\nThe ICG content of ICG-NACs (ICG/amine ratio=0.04) was quantified as a function of time by dis-assembling the capsules and measuring the absorbance of free ICG concentration at 780 nm (FIG. 9). For ICG-NACs at 23° C., more than 96% of ICG was retained. […]"}}, "data": [{"compound": "CC1(C)C(/C=C/C=C/C=C/C=C2\\N(CCCCS(=O)(=O)O)c3ccc4ccccc4c3C2(C)C)=[N+](CCCCS(=O)(=O)[O-])c2ccc3ccccc3c21", "note": "[ICG, indocyanine green]", "values": [{"measurement": "toxicity to fibroblast cells", "setting": "[1]", "result": "non-toxic"}, {"measurement": "half-life of rapid clearance from the circulatory system", "setting": "[2]; initial fast phase", "result": "3 to 4", "unit": "min"}, {"measurement": "half-life of much slower clearance rate", "setting": "[2]; second, slower phase", "result": "≥ 1", "unit": "h"}, {"measurement": "semilethal dose LD50", "setting": "animal subjects", "result": "50 to 80", "unit": "mg/kg"}, {"measurement": "photothermal heating response", "setting": "[3]; constant 808 nm irradiation, compared with ICG-NACs", "result": "very similar heating curve"}, {"measurement": "irradiation/cooling cycles in which the target temperature was reached", "setting": "[3]; irradiated to ~51-54° C. (ICG-NACs 55° C.), cooled to 30° C., repeated, photodegradation stability", "result": 4, "unit": "cycles"}, {"measurement": "published half-life of ICG", "setting": "[4]", "result": "~10", "unit": "h"}, {"measurement": "ICG lost at the end of 8 hr", "setting": "[5]; PBS, dark, capsules ICG/amine ratio=0.04, free ICG ~0.04 mg/mL", "result": "~35", "unit": "%"}, {"measurement": "half-life", "setting": "[5]; ICG solution in PBS, free ICG in PBS, calculated", "result": 19, "unit": "h"}]}]}
